From patent US11434241B2, “Pyrimidine derivatives for prevention and treatment of bacterial infections” (UNIVERSITE DE LIEGE, priority 2018, dated 2022)
Values after ≈ are worked out from the molar mass of the structure shown.

Key:
[1] = system: vancomycin-resistant (VRE) E. faecalis ATCC BAA-2365; experiment: MIC determination on vancomycin-resistant E. faecalis; type: cell-based, Enterococcus faecalis; details: Mueller-Hinton broth (MHB)
Experimental: Further experiments were conducted using the clinically relevant Gram-positive bacterial strain of vancomycin-resistant (VRE) E. faecalis ATCC BAA-2365, in order to determine the Minimal Inhibitory Concentration (MIC) which is the minimal concentration required to prevent bacterial growth.
(§1) A single colony selected from E. faecalis VRE is resuspended and cultured in the brain heart infusion (BHI) broth overnight (O/N) in aerobic conditions (37° C. with 220 rpm shaking), next day a 1:100 inoculum in Mueller-Hinton broth (MHB) is incubated in aerobic conditions for 3 hr (OD=0.08-0.1) and an inoculum of 1:300 dilution, corresponding to 3×10^5 CFU/ml, is incubated in presence or absence of different concentrations of the tested molecules in 1% DMSO. After O/N growth the OD of each culture is measured at 600 nm (OD600) in a spectrophotometer (Victor 3-Perkin Elmer). The MIC represents the concentration at which there is no visible growth of bacteria, i.e. ΔOD at 600 nm equal to zero (blank is the medium alone).

[2] = system: Glycopeptide intermediate-resistant (GISA) S. aureus Mu-50 (ATCC 700695); experiment: MIC determination on glycopeptide intermediate-resistant S. aureus; type: cell-based; details: Staphylococcus aureus, ATCC700695, read-out: MIC S. aureus GISA
Experimental: Further experiments are conducted using different strains of S. aureus, as clinically relevant Gram-positive bacterial strains: S. aureus ATCC 25904, methicillin-resistant S. aureus (MRSA) ATCC BAA-1556, Glycopeptide intermediate-resistant (GISA) S. aureus Mu-50 (ATCC 700695) in order to determine the Minimal Inhibitory Concentration (MIC) which is the minimal concentration required to prevent bacterial growth. The bioluminescent strain S. aureus Xen29 (ATCC 12600) was also used. This strain is derived from the parental strain S. aureus ATCC 12600, a pleural fluid isolate, which is also designated as NCTC8532.
as §1, with “from the different strains of S. aureus” for “from E. faecalis VRE”, “in” for “in the”, “hr (=OD0.08-0.1)” for “hr (OD=0.08-0.1)”, “culture was” for “culture is”, “alone). […] The MIC of molecule 2329 against Glycopeptide intermediate-resistant (GISA) S. aureus Mu-50 (ATCC 700695) is in between 25 and 30 μM, while it is above 50 μM for molecules 2348, 2412, and 2452.” for “alone).”

MRSA = experiment: Minimal Bactericidal Concentration (MBC) for MRSA; type: cell-based, Staphylococcus aureus; details: for MBC: Staphylococcus aureus, MRSA, 99.9% of initial inoculum killed over 24 hours
Experimental: We have determined the Minimal Bactericidal Concentration (MBC) of the pyrazolopyrimidine molecule 2666 for the MRSA strain and the MBC of the purine molecules 2329 and 2833 for MRSA and the MRSE strain respectively.
To determine the MBC, bacteria were grown as per MIC determination in presence of the pyrazolopyrimidine molecule 2666 for MRSA or in presence of the purine molecule 2833 for MRSE or 2329 for MRSA. At 24 hours bacteria were plated on TSB agar plates by the broth microdilution method, and colonies formed on the plates were counted next day.
The MBC represents the lowest concentration at which 99.9% bacteria of the initial inoculum are killed over 24 hours.

[3] = system: S. epidermidis (ATCC 35984) 24h-mature biofilm; experiment: S. epidermidis 24h-mature biofilm, crystal violet biomass; type: cell-based, Staphylococcus epidermidis; details: 80 μM; 24 h treatment of 24-hour mature biofilm
Experimental: In another experiment we let adhere 0.5×10^8 CFU/ml S. epidermidis cells for 4 hr and let the biofilm form for additional 24 hr in presence of 0.25% glucose, at this point we treated the biofilm with different concentrations of molecule 2329 for 24 h in TSB with 0.25% glucose and determined the biofilm biomass using the crystal violet staining.
For biofilm analysis, we first washed the biofilm 3 times with NaCl 0.9% to eliminate all planktonic bacteria, before incubation with a staining Crystal Violet 1% solution in distilled H2O (dH2O).
Wells are washed 3 times with dH2O to eliminate unbound crystal violet. 400 μl Acetic Acid 10% is then added and incubated at RT for 10 min. Absorbance is measured in triplicate at 570 nm, reflecting total biomass of the biofilm.

Compound | MIC [1] [µM] | MIC [2] [µM] | MBC relative to MIC, MRSA (MRSA) | MBC (MRSA) [µM] | mature biofilm biomass (crystal violet, absorbance 570 nm) [3]
CCCSc1nc(N[C@@H]2C[C@H]2c2ccc(F)c(F)c2)c2ncn(CC)c2n1 [Molecule 2348, N-((1R,2S)-2-(3,4-difluorophenyl)cyclopropyl)-9-ethyl-2-(propylthio)-9H-purin-6-amine] | > 50 | > 50 |  |  | 
C#CCn1cnc2c(N[C@@H]3C[C@H]3c3ccc(F)c(F)c3)nc(SCCC)nc21 [Molecule 2452, N-((1R,2S)-2-(3,4-difluorophenyl)cyclopropyl)-9-(prop-2-yn-1-yl)-2-(propylthio)-9H-purin-6-amine] | > 50 | > 50 |  |  | 
CCSc1nc(N[C@@H]2C[C@H]2c2ccc(F)c(F)c2)c2cnn(C)c2n1.Cl [Molecule 2666, N-((1R,2S)-2-(3,4-difluorophenyl)cyclopropyl)-6-(ethylthio)-1-methyl-1H-pyrazolo[3,4-d]pyrimidin-4-amine hydrochloride] |  |  | around 2 times | 40 | 
CCCSc1nc(N[C@@H]2C[C@H]2c2ccc(F)c(F)c2)c2ncn(C)c2n1 [Molecule 2329, N-((1R,2S)-2-(3,4-difluorophenyl)cyclopropyl)-9-methyl-2-(propylthio)-9H-purin-6-amine] | 25 (≈ 9.39 µg/mL) | 25 to 30 (≈ 9.39 to 11.3 µg/mL) | around 2 times | 40 (≈ 15 µg/mL) | could reduce
C=CCn1cnc2c(N[C@@H]3C[C@H]3c3ccc(F)c(F)c3)nc(SCCC)nc21 [Molecule 2412, 9-allyl-N-((1R,2S)-2-(3,4-difluorophenyl)cyclopropyl)-2-(propylthio)-9H-purin-6-amine] | > 50 | > 50 |  |  | 
